Assay results from ChEMBL document CHEMBL3593237, “Synthesis and biological evaluation of isoflavone amide derivatives with antihyperlipidemic and preadipocyte antiproliferative activities” (Bioorg Med Chem, 2015).
Active and inactive are the calls of the source. The calls are words filed in the database; no cut-off is given here.

Tests used:
[1] = system: 3T3-L1; assay: Inhibition of cell proliferation of mouse 3T3L1 cells at 100 uM incubated for 48 hrs by MTT assay; assay type: functional, cell-based
[2] = biological target: T1, Cholesteryl ester transfer protein (Oryctolagus cuniculus, UniProt P22687); assay: Inhibition of CETP in rabbit serum incubated for 1 hr using NBD-labeled cholesterol in HDL and LDL by fluorescence based assay
T1 sequence (P22687 whole entry): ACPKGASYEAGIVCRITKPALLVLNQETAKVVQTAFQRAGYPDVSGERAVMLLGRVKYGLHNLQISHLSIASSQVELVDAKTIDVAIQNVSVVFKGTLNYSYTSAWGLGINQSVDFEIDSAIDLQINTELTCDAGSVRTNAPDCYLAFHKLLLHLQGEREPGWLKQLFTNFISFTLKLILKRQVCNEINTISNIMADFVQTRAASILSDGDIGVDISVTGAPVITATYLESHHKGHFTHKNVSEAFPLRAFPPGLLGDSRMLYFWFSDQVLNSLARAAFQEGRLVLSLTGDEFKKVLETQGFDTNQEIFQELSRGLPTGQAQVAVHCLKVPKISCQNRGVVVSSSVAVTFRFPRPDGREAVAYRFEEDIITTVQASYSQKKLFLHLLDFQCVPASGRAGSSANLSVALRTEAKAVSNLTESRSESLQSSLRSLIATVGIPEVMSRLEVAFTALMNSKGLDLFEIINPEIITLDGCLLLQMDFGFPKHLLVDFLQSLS

[3] = biological target: T2, Cholesteryl ester transfer protein (Oryctolagus cuniculus) (UniProt P22687); assay: Inhibition of CETP in rabbit serum at 100 uM incubated for 1 hr using NBD-labeled cholesterol in HDL and LDL by fluorescence based assay
T2 sequence (whole entry): T1 sequence (P22687 whole entry)

[4] = system: HepG2; assay: Toxicity against human HepG2 cells assessed as inhibition of cell proliferation at 100 uM incubated for 48 hrs by MTT assay; assay type: cell-based; conditions: hepg2, 48 h
[5] = system: Syrian golden hamster; assay: Antihyperlipidemic activity in Syrian golden hamster model of high lipid diet-induced dyslipidemia model assessed as increase in HDL-C at 50 mg/kg/day, po for 28 days; assay type: functional, Mesocricetus auratus
[6] = system: Syrian golden hamster; assay: Antihyperlipidemic activity in Syrian golden hamster model of high lipid diet-induced dyslipidemia model assessed as reduction in LDL-C at 50 mg/kg/day, po for 28 days; assay type: functional, Mesocricetus auratus; design: scale not given: the % may be the effect or the level left

SMILES | IC50 [2] [µM] | inhibition [3] | inhibition [1] | Activity [4] | Activity [5] [%] | Activity [6] [%]
CCCCCCCC/C=C\CCCCCCCC(=O)Oc1ccc2c(=O)c(-c3ccc(OC)cc3)coc2c1 | – | – | Active | – | – | –
CC(=O)Oc1ccc2c(=O)c(-c3ccc(NC(=O)COc4ccccc4C)cc3)coc2c1 | 8.42 | Active | Active | – | – | –
O=C(COc1cccc2ccccc12)Nc1ccc(-c2coc3cc(O)ccc3c2=O)cc1 | – | Active | inactive | – | – | –
O=C(COc1ccccc1)Nc1ccc(-c2coc3cc(O)ccc3c2=O)cc1 | – | Active | inactive | – | – | –
COc1ccccc1OCC(=O)Nc1ccc(-c2coc3cc(O)ccc3c2=O)cc1 | – | inactive | inactive | – | – | –
Cc1cccc(OCC(=O)Nc2ccc(-c3coc4cc(O)ccc4c3=O)cc2)c1 | – | Active | inactive | – | – | –
Cc1ccccc1OCC(=O)Nc1ccc(-c2coc3cc(O)ccc3c2=O)cc1 | – | Active | inactive | – | – | –
CC(=O)Oc1ccc2c(=O)c(-c3ccc(NC(=O)COc4ccccc4)cc3)coc2c1 | 1.52 | Active | Active | Non-toxic | 66 | 44.6

More lines, main results first:

IC50 [2] [µM] | inhibition [3] | SMILES | inhibition [1] | Activity [4] | Activity [5] [%] | Activity [6] [%]
– | Active | Cc1ccc(OCC(=O)Nc2ccc(-c3coc4cc(O)ccc4c3=O)cc2)cc1 | inactive | – | – | –
– | inactive | COc1ccccc1OCC(=O)Nc1ccc(-c2coc3cc(OC(C)=O)ccc3c2=O)cc1 | Active | – | – | –
– | Active | CC(=O)Oc1ccc2c(=O)c(-c3ccc(NC(=O)COc4cccc5ccccc45)cc3)coc2c1 | Active | – | – | –
– | Active | COc1cc(F)c(C(C)C)cc1-c1ccc(C(F)(F)F)cc1CN1C(=O)O[C@H](c2cc(C(F)(F)F)cc(C(F)(F)F)c2)[C@@H]1C | – | – | – | –
– | inactive | CC(=O)Oc1ccc2c(=O)c(-c3ccc(NC(=O)COc4cccc(C)c4)cc3)coc2c1 | Active | – | – | –
– | inactive | CC(=O)Oc1ccc2c(=O)c(-c3ccc(NC(=O)COc4ccc(C)cc4)cc3)coc2c1 | Active | – | – | –
